Experimental data published in US20240166645A1, “PYRIDOPYRIMIDINONE DERIVATIVE, PREPARATION METHOD THEREFOR, AND USE THEREOF” (Wuhan Humanwell Innovative Drug Research and Development …, priority 2021, published 2024).

Legend:
CYP3A4 = CYP3A4 (Homo sapiens (Human), UniProt P08684); assay: Inhibition test on cytochrome P450 subtype CYP3A4; assay type: in vitro ADME; details: at 10 μM, compared with the control compound I
Experimental: The inhibitory potential of compounds on cytochrome P450 (CYP450) subtype CYP3A4 (two substrates of midazolam and testosterone) was detected. First, the compound to be tested was prepared into a 10 mM stock solution in DMSO solvent, and the CYP3A4 inhibitor ketoconazole was prepared as 10 mM, 2.5 mM and 2.5 mM stock solutions in DMSO solvent. The test compound and ketoconazole were diluted to 400-fold final concentration (compound: 10 μM, ketoconazole: 2.5 μM) with acetonitrile.
NADPH cofactor (10 mL of potassium phosphate buffer added with 66.7 mg NADPH) at 4-fold final concentration and substrates were prepared with potassium phosphate buffer (0.1 M, pH=7.4), with CYP3A4 substrate midazolam at a final concentration of […] and CYP3A4 substrate testosterone at a final concentration of 20 μM.
A human liver microsome solution at a concentration of 0.2 mg/mL was prepared with potassium phosphate buffer on ice. A solution of the compound to be tested and a control inhibitor (control compound) solution at 2-fold final concentration were prepared with the human liver microsome solution on ice. The test wells were added with […] of the test compound solution and the control inhibitor solution respectively, and then added with […] of the substrate for duplication. A 96-well assay plate and a NADPH solution were incubated at 37° C. for 5 min, and 15 μL of pre-heated 8 mM NADPH solution was added to the assay plate to initiate the reaction. A CYP3A4 assay plate was pre-incubated at 37° C. for 5 min. The plate was added with 120 μL of acetonitrile to terminate the reaction, and after quenching, the plate was shaken on a shaker (IKA, MTS 2/4) for 10 min (600 rpm/min), and then centrifuged for 15 min. After centrifugation, the supernatant was collected, and added with purified water in a ratio of 1:1 to perform LC-MS/MS detection. A ratio of a peak area of compound to a peak area of internal standard was obtained, and the peak area ratio of the compound was compared with the peak area ratio of the control inhibitor to calculate the inhibition rate.

KRAS G12C-SOS1 = KRAS G12C-SOS1 (Homo sapiens (Human), UniProt Q07889); assay: Inhibition test of compounds on KRAS G12C::SOS1 binding; details: GST-KRAS G12C, His-SOS1
KRAS G12C-SOS1, sequence (Q07889 whole entry, stated change not applied): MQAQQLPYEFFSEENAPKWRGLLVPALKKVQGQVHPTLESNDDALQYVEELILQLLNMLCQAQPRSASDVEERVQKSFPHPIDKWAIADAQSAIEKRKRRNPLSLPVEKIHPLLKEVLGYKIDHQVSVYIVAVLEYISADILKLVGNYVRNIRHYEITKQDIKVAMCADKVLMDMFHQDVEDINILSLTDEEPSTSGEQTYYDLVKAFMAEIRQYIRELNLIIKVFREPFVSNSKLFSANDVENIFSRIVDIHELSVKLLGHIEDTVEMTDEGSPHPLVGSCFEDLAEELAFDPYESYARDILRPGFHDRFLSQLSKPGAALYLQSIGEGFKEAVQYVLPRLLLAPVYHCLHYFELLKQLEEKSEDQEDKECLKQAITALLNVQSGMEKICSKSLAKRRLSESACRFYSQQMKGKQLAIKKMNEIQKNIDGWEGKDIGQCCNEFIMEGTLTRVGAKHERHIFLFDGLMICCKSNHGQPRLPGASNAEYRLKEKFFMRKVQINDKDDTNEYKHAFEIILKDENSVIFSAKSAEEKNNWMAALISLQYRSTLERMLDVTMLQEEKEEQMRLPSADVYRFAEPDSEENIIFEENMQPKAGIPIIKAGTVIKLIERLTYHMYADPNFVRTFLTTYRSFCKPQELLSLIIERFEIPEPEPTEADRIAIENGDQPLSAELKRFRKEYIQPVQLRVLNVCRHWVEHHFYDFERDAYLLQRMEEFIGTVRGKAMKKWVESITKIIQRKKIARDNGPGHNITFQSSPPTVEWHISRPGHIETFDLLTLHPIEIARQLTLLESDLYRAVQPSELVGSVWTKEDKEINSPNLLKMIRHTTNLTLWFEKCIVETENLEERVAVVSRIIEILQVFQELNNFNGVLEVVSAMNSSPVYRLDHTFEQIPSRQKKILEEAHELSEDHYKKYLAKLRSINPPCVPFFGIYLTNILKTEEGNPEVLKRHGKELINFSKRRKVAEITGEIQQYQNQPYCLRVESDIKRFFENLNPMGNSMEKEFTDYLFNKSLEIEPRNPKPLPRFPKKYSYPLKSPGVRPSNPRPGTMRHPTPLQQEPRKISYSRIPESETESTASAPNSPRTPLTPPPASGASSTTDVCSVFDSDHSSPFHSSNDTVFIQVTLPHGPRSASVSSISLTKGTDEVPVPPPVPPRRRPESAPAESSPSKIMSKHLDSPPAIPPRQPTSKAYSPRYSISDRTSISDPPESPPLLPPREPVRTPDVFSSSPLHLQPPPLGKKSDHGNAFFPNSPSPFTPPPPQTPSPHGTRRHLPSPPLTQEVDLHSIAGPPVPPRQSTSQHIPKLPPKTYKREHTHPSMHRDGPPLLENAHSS
Experimental: The compound to be tested was prepared into a 10 mM stock solution with DMSO, and the compound was serially diluted using 1× test buffer. 0.1 μL of the compound solution with different concentrations was transferred to a 384-well plate. […] 5 μL of His-SOS1 was added to the 384-well plate, centrifuged at 1000 rpm for 1 min, and incubated at room temperature for 15 min.
After incubation, 10 μL of a mixed solution of anti-6his-Tb monoclonal antibody (Cisbio, Cat. No. 61HI2TLA) and anti-GST-XL665 monoclonal antibody (Cisbio, Cat. No. 61GSTXLA) was added to the test well, centrifuged at 1000 rpm for 1 min, and incubated at room temperature for 1 h.
After incubation, the fluorescence signal ratios at 665 nm and 615 nm were read on a multifunctional microplate reader (Perkin Elmer, Envision 2104), and the IC50 values were calculated using Graphpad 5 software.

[1] = test system: ERK phosphorylation level in DLD-1 cells; assay: Inhibition of ERK phosphorylation level in DLD-1 cells (intracellular western blot); assay type: cell-based; details: Homo sapiens
Experimental: Intracellular western blot quantitative analysis was used to detect the inhibitory level of compounds on ERK phosphorylation in DLD-1 cells.
DLD-1 cells (ATCC, CCL-221) were seeded in a T75 culture flask at 2.5×10^6 cells/flask and cultured in a RPMI 1640 medium containing 10% FBS for 2 days. On day 3, the cells were seeded on a 384-well plate, and cultured overnight at 37° C., 5% CO2. After overnight culture, the plate was added with serially diluted compounds (the final content of DMSO was 0.5%), the negative group was added with DMSO, and incubated in a 37° C., 5% CO2 incubator.
The cells were fixed, washed once with PBS, treated to disrupt membranes, and blocked at room temperature for 1 h. The blocking solution was removed. The plate was added with primary antibody (CST, Cat. No. #4370S), and incubated overnight at 4° C. The plate was washed 3 times with PBST (PBS solution added with 0.05% Tween-20) and soaked for 2 min each time. The plate was added with secondary antibody (LI-COR, Cat. No. 926-32211) and incubated at room temperature in the dark. The plate was washed 3 times with PBST and soaked for 2 min each time. The plate was centrifuged at 1000 rpm for 1 min, scanned on a two-color infrared laser imaging system (Odyssey® CLX) to read the signal.
Relative signal=800-channel signal values/700-channel signal values.
Relative expression level of ERK phosphorylation=(test compound−control compound I)/(DMSO group−control compound I)
(§1) IC50 values were calculated using Graphpad 5 software.

H358 cells = assay: Inhibition of 3D cell proliferation (3D CellTiter-Glo); assay type: cell-based; details: Homo sapiens, NCI-H358, 168 h, read-out: IC50 (nM), inhibition of 3D proliferation of H358 cells, 7 days
Experimental: H358 cells were seeded in a T75 culture flask and cultured in a RPMI 1640 medium containing 10% FBS for 2 days for subsequent experiments in which the cells would be cultured or seeded on a 384-well plate.
On day 1, the cells were seeded on the 384-well plate, with 40 μL of medium added per well and serially diluted compounds or DMSO added per well, and an additional well without seeded cells but with medium was set up as a blank control. After culture at 37° C., 5% CO2 for 7 days, the plate was added with 3D CellTiter-Glo reagent (Promega, Cat. No. G9683) on day 8, shaken at 320 rpm for 20 min, and left at room temperature for 2 h. Luminescence signals were read on a multifunctional microplate reader. Cell viability inhibition rate was calculated as:
Cell viability inhibition rate=(DMSO group−test compound)/(DMSO group−blank control group)×100%
as §1

[2] = Pharmacokinetic test in mice; assay type: in vivo; details: mouse, plasma; male ICR mice, oral gavage, 10 mg/kg
Experimental: Male ICR mice (20 to 25 g) were used and fasted overnight. Three mice were taken and orally administered by gavage (10 mg/kg). Blood was collected before the administration, and at 15 min, 30 min, 1 h, 2 h, 4 h, 8 h and 24 h after the administration. 6,800 g of the blood samples were centrifuged at 2 to 8° C. for 6 min, and plasma was collected and stored at −80° C. The plasma at each time point was taken and added with an acetonitrile solution containing internal standard in 3 to 5 times the amount, vortexed and mixed for 1 min, and centrifuged at 13,000 rpm/min at 4° C. for 10 min. The supernatant was collected, added with water in 3 times the amount, and mixed. An appropriate amount of the mixture was taken for LC-MS/MS analysis. The main pharmacokinetic parameters were analyzed using WinNonlin 7.0 software with non-compartmental model.

[3] = test system: Mia Paca-2 pancreatic cancer; assay: Mia Paca-2 pancreatic cancer in vivo efficacy test; set-up: species or system mice; details: Mia Paca-2, 0.125 mg/kg BID
Experimental: After one week of adaptive feeding of mice, Mia Paca-2 cells in a log phase were resuspended in serum-free DMEM, and then mixed with Matrigel in a ratio of 1:1.1×10^7 Mia Paca-2 cells were inoculated subcutaneously at the right flank at 100 μL per mouse, and tumor growth was observed regularly. When the tumor grew to an average volume of 150 to 200 mm^3, the mice were randomly divided into a model group and an administration group (single drug, in combination with trametinib) based on the tumor size and body weight. The tumor size and body weight were measured and recorded before and during the administration. After the treatment, the tumor size in the model group was compared with that in the administration group to determine the efficacy.

CYP3A4, sequence (P08684 whole entry): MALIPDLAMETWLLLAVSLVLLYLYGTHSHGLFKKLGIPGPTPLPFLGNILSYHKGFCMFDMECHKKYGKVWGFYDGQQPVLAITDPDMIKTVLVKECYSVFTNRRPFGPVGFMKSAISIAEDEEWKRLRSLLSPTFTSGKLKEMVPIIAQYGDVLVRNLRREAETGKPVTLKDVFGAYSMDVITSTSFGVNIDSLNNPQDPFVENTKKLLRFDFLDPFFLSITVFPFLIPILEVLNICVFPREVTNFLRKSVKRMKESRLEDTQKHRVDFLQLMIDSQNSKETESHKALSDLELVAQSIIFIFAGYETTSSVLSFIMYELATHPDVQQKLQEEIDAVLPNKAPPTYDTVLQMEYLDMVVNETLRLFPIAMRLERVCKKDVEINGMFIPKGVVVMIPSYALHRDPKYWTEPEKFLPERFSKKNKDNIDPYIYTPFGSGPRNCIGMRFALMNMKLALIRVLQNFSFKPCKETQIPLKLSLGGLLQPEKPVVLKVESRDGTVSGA

Structure (SMILES) | IC50 (KRAS G12C-SOS1) [nM] | IC50 [1] [nM] | IC50 (H358 cells) [nM] | further results
Cc1nc(N[C@H](C)c2cccc(S(F)(F)(F)(F)F)c2)c2cn(C3(CF)CC3)c(=O)cc2n1 [Compound I-3, (R)-6-(1-(fluoromethyl)cyclopropyl)-2-methyl-4-((1-(3-(pentafluorosulfanyl)phenyl)ethyl)amino)pyrido[4,3-d]pyrimidin-7(6H)-one] | – | – | – | inhibitory effect on CYP3A4 enzymes (in words) (CYP3A4): more significant inhibitory effect
Cc1nc(N[C@H](C)c2cccc(OC(F)F)c2F)c2cn(C3(C(F)F)CC3)c(=O)cc2n1 [Compound I-12, (R)-4-((1-(3-(difluoromethoxy)-2-fluorophenyl)ethyl)amino)-6-(1-(difluoromethyl)cyclopropyl)-2-methylpyrido[4,3-d]pyrimidin-7(6H)-one] | 22.2 | 196 | – | –
COCC1(n2cc3c(N[C@H](C)c4cccc(S(F)(F)(F)(F)F)c4)nc(C)nc3cc2=O)CC1 [Compound I-13, (R)-6-(1-(methoxymethyl)cyclopropyl)-2-methyl-4-((1-(3-(pentafluorosulfanyl)phenyl)ethyl)amino)pyrido[4,3-d]pyrimidin-7(6H)-one] | – | 109 | 15.7 | –
Cc1nc(N[C@H](C)c2cccc(S(F)(F)(F)(F)F)c2)c2cn([C@H]3C[C@](C)(O)C3)c(=O)cc2n1 [Compound I-15, 6-((1r,3R)-3-hydroxy-3-methylcyclobutyl)-2-methyl-4-(((R)-1-(3-(pentafluorosulfanyl)phenyl)ethyl)amino)pyrido[4,3-d]pyrimidin-7(6H)-one] | 14.4 | – | – | –
Cc1nc(N[C@H](C)c2cccc(S(F)(F)(F)(F)F)c2)c2cn(C3CC(F)(F)C3)c(=O)cc2n1 [Compound I-16, (R)-6-(3,3-difluorocyclobutyl)-2-methyl-4-((1-(3-(pentafluorosulfanyl)phenyl)ethyl)amino)pyrido[4,3-d]pyrimidin-7(6H)-one] | 16.1 | – | – | –
CC(=O)N1CCC(C)(n2cc3c(N[C@H](C)c4cccc(S(F)(F)(F)(F)F)c4)nc(C)nc3cc2=O)CC1 [Compound I-17, (R)-6-(1-acetyl-4-methylpiperidin-4-yl)-2-methyl-4-((1-(3-(pentafluorosulfanyl)phenyl)ethyl)amino)pyrido[4,3-d]pyrimidin-7(6H)-one] | – | 119 | 12.1 | –
CC(=O)N1CCC(C)(n2cc3c(N[C@H](C)c4cccc(S(F)(F)(F)(F)F)c4)nc(C)nc3cc2=O)C1 (stereo partly drawn) [Compound I-18, 6-(1-acetyl-3-methylpyrrolidin-3-yl)-2-methyl-4-(((R)-1-(3-(pentafluorosulfanyl)phenyl)ethyl)amino)pyrido[4,3-d]pyrimidin-7(6H)-one] | – | 115 | 9.2 | –
Cc1nc(N[C@H](C)c2cccc(S(F)(F)(F)(F)F)c2)c2cn([C@H]3C[C@H](F)C3)c(=O)cc2n1 [Compound I-19, 6-((1R,3R)-3-fluorocyclobutyl)-2-methyl-4-(((R)-1-(3-(pentafluorosulfanyl)phenyl)ethyl)amino)pyrido[4,3-d]pyrimidin-7(6H)-one] | 9.5 | 131 | 137 | –
Cc1nc(N[C@H](C)c2cccc(S(F)(F)(F)(F)F)c2)c2cn(C3(C)CCOC3)c(=O)cc2n1 (stereo partly drawn) [Compound I-20, 2-methyl-6-(3-methyltetrahydrofuran-3-yl)-4-(((R)-1-(3-(pentafluorosulfanyl)phenyl)ethyl)amino)pyrido[4,3-d]pyrimidin-7(6H)-one] | – | 92 | 31 | –
Cc1nc(N[C@H](C)c2cccc(S(F)(F)(F)(F)F)c2)c2cn(C3(C)CCOCC3)c(=O)cc2n1 [Compound I-21, (R)-2-methyl-6-(4-methyltetrahydro-2H-pyran-4-yl)-4-((1-(3-(pentafluorosulfanyl)phenyl)ethyl)amino)pyrido[4,3-d]pyrimidin-7(6H)-one] | 6.9 | 141 | 85.1 | –
Cc1nc(N[C@H](C)c2cccc(S(F)(F)(F)(F)F)c2)c2cn(C3(C)CC3)c(=O)cc2n1 [Compound I-22, (R)-2-methyl-6-(1-methylcyclopropyl)-4-((1-(3-(pentafluorosulfanyl)phenyl)ethyl)amino)pyrido[4,3-d]pyrimidin-7(6H)-one] | 21.7 | – | 10.7 | –
Cc1nc(N[C@H](C)c2cccc(C(F)F)c2F)c2cn(C3(C(F)F)CC3)c(=O)cc2n1 [Control compound II, reference compound] | – | – | – | AUC(0-t) [2]: 1000 ng·h/mL; Cmax [2]: 669 ng/mL; Tmax [2]: 30 min; half-life [2]: 57.6 min
CC(=O)Nc1cccc(-n2c(=O)n(C3CC3)c(=O)c3c(Nc4ccc(I)cc4F)n(C)c(=O)c(C)c32)c1 [Trametinib, reference compound] | – | – | – | Tumor weight inhibition rate (relative to the vehicle group) [3]: 80%
